Measured values: patent US20260344668A1, “PHENYLPYRAZOLE COMPOUND, AND PLANT DISEASE CONTROL METHOD” (priority 2022, published 2026)

Tests used:
Phakopsora pachyrhizi [1] = experiment: Test Example 15 Control Test Against Soybean Rust Fungus (spore germination, 96 well titer plate); format: cell-based; conditions: treatment concentration 1 ppm, 23° C., several hours
Procedure: (§1) The term of “non-treated well” in Test Example 4, Test Example 5, and Test Example 6 represents a well wherein a test was carried out under the same conditions as those described in each Test Example except for dispensing DMSO instead of a diluted solution with DMSO comprising the Present compound. Also, the term of “non-treated” in Test Examples 15 to 17 represents a test which was carried out under the same conditions as those described in each Test Example except for dispensing DMSO instead of a diluted solution with DMSO comprising the Present compound. Also, the term of “non-treated leaf disk” in Test Example 7 represents a leaf disk wherein a test was carried out under the same conditions as those described in the Test Example except for dispensing DMSO instead of a diluted solution with DMSO comprising the Present compound. Also, the term of “non-treated” in Test Example 10 and Test Example 11 means that a diluted solution with water of a formulation comprising the Present compound was not sprayed.
The Present compound was diluted with DMSO to obtain a diluted solution containing 150 ppm of the compound, and 1 μL of the diluted solution was dispensed into a titer plate (96 well), and thereto was then dispensed 149 μL of an aqueous suspension (1.0×10^4/mL) of spores of Phakopsora pachyrhizi to which spores of Phakopsora pachyrhizi were suspended in advance. This plate was cultured at 23° C. for several hours, and then germinated spores of Phakopsora pachyrhizi were counted. As a result, when the treatment concentration was 1 ppm, the number of germinated spores in each well comprising any one of the Present compound 1, 11, 17, 18, 20, 23, 30, 33, 34, 35, 36, 37, 38, 39, 40, 41, 42, 43, 44, 46, 47, 48, 49, 50, 51, 52, 53, 54, 55, 56, 57, 58, 62, 63, 64, 65, 66, 67, 68, 69, 70, 71, 72, 73, 74, 75, 76, 77, 78, 79, 80, 81, 82, 83, 84, 85, 86, 87, 88, 89, 90, 91, 92, 93, 94, 95, 96, 97, 98, 99, 100, 101, or 102 as the test compound was 50% or less relative to the number of germinated spores in the non-treated well.

[2] = test system: soybean rust fungus (Phakopsora pachyrhizi) having an amino acid substitution of F129L in a mitochondrial cytochrome b protein; experiment: Test Example 7 Control Test Against Soybean Rust (leaf disk); format: in vivo; conditions: 200 ppm, 10 μL per soybean leaf disk (cultivar: Kurosengoku), inoculated after 1 day
Procedure: as §1
A true leaf of a soybean (cultivar: Kurosengoku) was cut into a diameter of 1 cm to prepare each leaf disk. To each well of a 24 well microplate was dispensed 1 mL of an agar medium (agar concentration 1.2%), and then one of said leaf disk was placed on the agar medium in each well. To a mixture of Sorpol (registered trademark) 1200KX (0.5 μL), DMSO (4.5 μL), and xylene (5 μL) was added a DMSO solution (20 μL) comprising a test compound (10000 ppm), and the resulting mixture was mixed. The resulting mixture was diluted with ion exchange water to prepare a mixture comprising a prescribed concentration of the test compound.
The resulting mixture was sprayed into each leaf disk at a ratio of 10 μL per leaf disk. After 1 day, an aqueous suspension of spores of soybean rust fungus (Phakopsora pachyrhizi) having an amino acid substitution of F129L in a mitochondrial cytochrome b protein (1.0×10^5/mL) was inoculated by spraying on each leaf disk. After the inoculation, the microplate was placed into an artificial climate chamber (Lighting: 6 hours, Lights-out: 18 hours, Temperature: 23° C., Humidity: 60%). After 1 day, the leaf disks were air-dried until water droplets on the surfaces of the leaf disks disappeared, and the microplate was placed into the artificial climate chamber again for 12 days. Then, lesion area of soybean rust was investigated. As a result, when the prescribed concentration was 200 ppm, each lesion area of leaf disk treated with any one of the Present compound 9, 10, 11, 13, 14, 15, 16, 17, 18, 20, 32, 33, 34, 35, 36, 37, 38, 39, 40, 42, 43, 44, 47, 48, 49, 50, 51, 52, 53, 55, 56, 57, 58, 62, 63, 64, 65, 66, 67, 68, 69, 70, 71, 73, 74, 75, 76, 77, 78, 79, 80, 81, 82, 83, 84, 85, 86, 87, 88, 89, 90, 91, 92, 93, 94, 95, 96, 97, 98, 99, 100, 101, or 102 as the test compound was 30% or less relative to the lesion area of non-treated leaf disk.

Phakopsora pachyrhizi [3] = experiment: Test Example 11 Control Test Against Soybean Rust (pot test, spraying before inoculation); format: in vivo; conditions: 200 ppm foliage spray, soybeans (Kurosengoku), inoculated after 2 to 5 days
Procedure: as §1
A plastic pot was filled with soil, soybeans (cultivar: Kurosengoku) were seeded thereto, and cultured in a greenhouse for 10 to 14 days. The Present compound 9, 10, 11, 13, 14, 15, 17, 18, 20, 21, 22, 23, 26, 27, 33, 34, 35, 36, 37, 38, 39, 40, 41, 42, 43, 44, 46, 47, 53, 54, 55, 56, 57, 58, 66, 67, 68, 69, 70, 71, 73, 74, 75, 76, 77, 78, 79, 80, 81, 82, 83, 84, 85, 86, 87, 88, 89, 90, 91, 92, 93, 94, 95, 96, 97, 98, 99, 100, 101, or 102 formulated according to the method described in the Formulation Example 1 was mixed with water in such a way that the concentration thereof was 200 ppm, and the resulting mixture was sprayed to foliage of the above soybeans so as to adequately adhere onto the surfaces of leaves of the above soybeans. After spraying the mixture, the soybeans were air-dried. After 2 to 5 days, an aqueous suspension of spores of Phakopsora pachyrhizi was inoculated by spraying to the soybeans. After the inoculation, the soybeans were placed in a greenhouse at 23° C. in daytime and at 20° C. in nighttime under a humid condition for 1 to 2 day(s), then cultured in a greenhouse for 12 days, and then a lesion area was investigated. As a result, the lesion area in the soybeans treated with each of the above Present compound was 30% or less relative to the lesion area in the non-treated soybeans.

Row | SMILES | number of germinated spores relative to the non-treated well (Phakopsora pachyrhizi [1]) [%] | lesion area relative to the lesion area of non-treated leaf disk [2] [%] | lesion area relative to the lesion area in the non-treated soybeans (Phakopsora pachyrhizi [3]) [%]
1 | Cc1ccc(S(=O)(=O)n2ccc(-c3ccc(Cl)cc3)n2)cc1 [compound 1] | ≤ 50 |  | 
2 | O=S(=O)(c1ccccc1Cl)n1ccc(-c2cc(F)c(Br)c(F)c2)n1 [compound 11] | ≤ 50 | ≤ 30 | ≤ 30
3 | O=S(=O)(c1ccccc1F)n1ccc(-c2cc(F)c(Br)c(F)c2)n1 [compound 13] |  | ≤ 30 | ≤ 30
4 | O=S(=O)(c1ccc(F)cc1)n1ccc(-c2cc(F)c(Br)c(F)c2)n1 [compound 14] |  | ≤ 30 | ≤ 30
5 | O=S(=O)(c1c(Cl)cccc1Cl)n1ccc(-c2cc(F)c(Br)c(F)c2)n1 [compound 15] |  | ≤ 30 | ≤ 30
6 | O=S(=O)(c1cc(Cl)cc(Cl)c1)n1ccc(-c2cc(F)c(Br)c(F)c2)n1 [compound 16] |  | ≤ 30 | 
7 | O=S(=O)(c1cccc(Cl)c1)n1ccc(-c2cc(F)c(Br)c(F)c2)n1 [compound 18] | ≤ 50 | ≤ 30 | ≤ 30
8 | Cc1cccc(S(=O)(=O)n2ccc(-c3cc(F)c(Br)c(F)c3)n2)c1 [compound 20] | ≤ 50 | ≤ 30 | ≤ 30
9 | Cc1ccc(S(=O)(=O)n2ccc(-c3cc(F)c(Br)c(F)c3)n2)cc1 [compound 21] |  |  | ≤ 30
10 | COc1ccc(S(=O)(=O)n2ccc(-c3cc(F)c(Br)c(F)c3)n2)cc1 [compound 22] |  |  | ≤ 30
11 | COc1cccc(S(=O)(=O)n2ccc(-c3cc(F)c(Br)c(F)c3)n2)c1 [compound 23] | ≤ 50 |  | ≤ 30
12 | N#Cc1cccc(S(=O)(=O)n2ccc(-c3cc(F)c(Br)c(F)c3)n2)c1 [compound 26] |  |  | ≤ 30
13 | N#Cc1ccc(S(=O)(=O)n2ccc(-c3cc(F)c(Br)c(F)c3)n2)cc1 [compound 27] |  |  | ≤ 30
14 | O=S(=O)(c1cc2ccccc2o1)n1ccc(-c2cc(F)c(Br)c(F)c2)n1 [compound 30] | ≤ 50 |  | 
15 | Cn1ccc(S(=O)(=O)n2ccc(-c3cc(F)c(Br)c(F)c3)n2)n1 [compound 34] | ≤ 50 | ≤ 30 | ≤ 30
16 | Cn1cc(S(=O)(=O)n2ccc(-c3cc(F)c(Br)c(F)c3)n2)cn1 [compound 35] | ≤ 50 | ≤ 30 | ≤ 30
17 | Cn1ccnc1S(=O)(=O)n1ccc(-c2cc(F)c(Br)c(F)c2)n1 [compound 38] | ≤ 50 | ≤ 30 | ≤ 30
18 | CN(C)c1ccc(-c2ccn(S(=O)(=O)c3cccs3)n2)cc1 [compound 46] | ≤ 50 |  | ≤ 30
19 | O=S(=O)(c1ccc(Cl)s1)n1ccc(-c2cc(F)c(Br)c(F)c2)n1 [compound 47] | ≤ 50 | ≤ 30 | ≤ 30
20 | O=S(=O)(c1cccnc1Cl)n1ccc(-c2cc(F)c(Br)c(F)c2)n1 [compound 54] | ≤ 50 |  | ≤ 30
21 | O=S(=O)(c1cccnc1)n1ccc(-c2cccc(F)c2)n1 [compound 56] | ≤ 50 | ≤ 30 | ≤ 30
22 | O=S(=O)(c1cccnc1)n1ccc(-c2ccc(F)cc2)n1 [compound 57] | ≤ 50 | ≤ 30 | ≤ 30
23 | COc1ccc(-c2ccn(S(=O)(=O)c3cccnc3)n2)cc1 [compound 58] | ≤ 50 | ≤ 30 | ≤ 30
24 | O=S(=O)(c1cccs1)n1ccc(-c2ccc3c(c2)OC(F)(F)O3)n1 [compound 63] | ≤ 50 | ≤ 30 | 
25 | O=S(=O)(c1cccs1)n1ccc(-c2ccc3nonc3c2)n1 [compound 64] | ≤ 50 | ≤ 30 | 
26 | O=S(=O)(c1cccs1)n1ccc(-c2ccc3ncsc3c2)n1 [compound 65] | ≤ 50 | ≤ 30 | 
27 | O=S(=O)(c1cccs1)n1ccc(-c2ccc3ocnc3c2)n1 [compound 67] | ≤ 50 | ≤ 30 | ≤ 30
28 | Cc1ccc(S(=O)(=O)n2ccc(-c3cc(F)c(Br)c(F)c3)n2)o1 [compound 72] | ≤ 50 |  | 
29 | O=S(=O)(c1ccco1)n1ccc(-c2cc(F)cc(F)c2)n1 [compound 73] | ≤ 50 | ≤ 30 | ≤ 30
